Reference: publication PMC7998669, “7-(2-Anilinopyrimidin-4-yl)-1-benzazepin-2-ones Designed by a “Cut and Glue” Strategy Are Dual Aurora A/VEGF-R Kinase Inhibitors” (Molecules, 2021)
Values after ≈ are worked out from the molar mass of the structure shown.

Assays:
CDK2/CycA = target: T1, CDK2/CycA (Homo sapiens, UniProt P24941); assay: radiometric 33PanQinase protein kinase assay; type: biochemical; conditions: 1 µM ATP
T1 construct: host or cells: Sf9 (baculovirus)

CDK4/CycD1 = target: T2, CDK4/CycD1 (Homo sapiens, UniProt P11802); assay: radiometric 33PanQinase protein kinase assay; type: biochemical; conditions: 1 µM ATP
T2 construct: host or cells: Sf9 (baculovirus)

[1] = kinetic solubility by nephelometry; type: physicochemical; conditions: phosphate buffer, 25 °C, pH 7.4, aqueous buffer, kinetic from dmso stock, phosphate buffer pH 7.4, 1% DMSO, mean of two measurements, range in brackets
Method: The kinetic solubility of test compounds was determined by nephelometry. Dilution series of test compounds in DMSO with eight to ten different concentrations were prepared. The dilutions were pipetted (2 µL) into the cavities of a 96 well plate (CorningTM UV-transparent flat-bottom microtiter plate; Corning Incorporated, Kennebunk, ME, USA). A phosphate buffer solution pH 7.4 (198 µL) was added, so that the DMSO concentration in the measured solutions was 1%. Three wells were filled with DMSO and phosphate buffer pH 7.4 (2:198) and measured as blank values. The 96 well plate prepared in this way was measured with the NEPHELOstar® Plus nephelometer (BMG Labtech GmbH, Ortenberg, Germany, software: Omega 5.11) at a temperature of 25 °C. Previously, the plate was shaken at 500 rpm for 10 s and the laser intensity was set to 80%. The beam focus was set to 2.50 mm. If the test substance is completely soluble, only a scattering close to the blank value is detected. As soon as a critical concentration is reached in which the kinetic solubility of the test compound is exceeded, solid particles precipitate. Undissolved particles in the sample scatter the laser beam. The intensity of the scattered light is determined, which is proportional to the number of particles in the solution. The blank values were determined and subtracted from the measured values of the test compounds. By measuring different concentrations of the test substances, different intensities of the scattered light, indicated as RNU (relative nephelometric units), were determined. Kick off curves were obtained by plotting concentrations against the RNU values. The point of intersection of the horizontal and of the ascending part of the kick-off curve indicated the kinetic solubility concentration.

T2 sequence (P11802 whole entry): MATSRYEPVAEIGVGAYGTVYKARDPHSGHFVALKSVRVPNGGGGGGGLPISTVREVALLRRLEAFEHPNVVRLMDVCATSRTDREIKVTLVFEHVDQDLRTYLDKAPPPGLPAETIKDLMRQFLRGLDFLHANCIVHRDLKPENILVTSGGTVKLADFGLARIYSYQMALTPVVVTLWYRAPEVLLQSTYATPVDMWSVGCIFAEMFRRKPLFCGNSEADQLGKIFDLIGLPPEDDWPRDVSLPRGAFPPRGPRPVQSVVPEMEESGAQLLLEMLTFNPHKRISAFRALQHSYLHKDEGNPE
T2 sequence (P24385 whole entry partner): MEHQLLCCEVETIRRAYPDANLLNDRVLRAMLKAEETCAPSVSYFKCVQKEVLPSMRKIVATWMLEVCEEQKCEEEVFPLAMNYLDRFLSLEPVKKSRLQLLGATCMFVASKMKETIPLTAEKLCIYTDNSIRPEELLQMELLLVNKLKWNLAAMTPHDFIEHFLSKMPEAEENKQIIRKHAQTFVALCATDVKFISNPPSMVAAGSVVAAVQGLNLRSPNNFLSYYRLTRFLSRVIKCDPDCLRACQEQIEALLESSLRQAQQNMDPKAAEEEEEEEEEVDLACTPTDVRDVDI

| IC50 (CDK2/CycA) | IC50 (CDK4/CycD1) | SMILES | solubility kinetic at 10 s [1] |
| --- | --- | --- | --- |
| 60 µM | 19 µM | O=C1CCCc2cc(-c3ccnc(Nc4ccccc4)n3)ccc2N1 [Compound 2a, 7-(2-Anilinopyrimidin-4-yl)-1,3,4,5-tetrahydro-2H-1-benzazepin-2-one] | ~50 µM (≈ 16.5 µg/mL) |
|  |  | COc1ccc(Nc2nccc(-c3ccc4c(c3)CCCC(=O)N4)n2)cc1O [Compound 2n, 7-[2-(3-Hydroxy-4-methoxyanilino)pyrimidin-4-yl]-1,3,4,5-tetrahydro-2H-1-benzazepin-2-one] | 92.6 µM (≈ 34.9 µg/mL) |
